Measurements reported in patent US20260284016A1, “COMBINATIONS AND METHODS FOR ENHANCING CHECKPOINT INHIBITOR THERAPIES IN CANCER TREATMENT” (PURDUE RESEARCH FOUNDATION, priority 2004, published 2026).

Assays:
[1] = test system: M2-induced THP-1 macrophages; experiment: Reprogramming of M2-polarized THP-1 macrophages, marker mRNA by qPCR; type: cell-based, human
Method: THP-1 cells were seeded into 96-well plates at a density of 60,000 cells/well. Cells were differentiated into unpolarized macrophages by 48 hours incubation with 200 nM PMA followed by 24 hours incubation in fresh RPMI medium. […] Cultures were maintained at 37° C., in a humidified 5% CO2 incubator.
Total RNA was isolated from 1×10^5-2×10^5 macrophages using a Quick-RNA™ MicroPrep kit (Zymo Research, Irvine, CA) according to the manufacturer-recommended protocol. The RNA samples were then reverse-transcribed into cDNA using high-capacity cDNA reverse transcription kits (Applied Biosystems, Foster City, CA; #4368814), qPCR analyses were performed using the iTaq™ Universal SYBR Green SuperMix (Bio-Rad Laboratories GmbH, Hercules, CA; #1725121), iCycler thermocycler, and iCycler iQ 3.0 software (Bio-Rad Laboratories GmbH, Hercules, CA) to track the expression of markers characteristic of macrophage polarization states, IL-6, CXCL10, IFNα, IFN-γ and CD86 were used as markers for an M1 phenotype, while CCL18. CD206, CD163 and Arg1 were employed as markers for the M2 phenotype, IL-1β, PDGFβ, MMP9 and TIMP 3 were measured as indicators of an anti-inflammatory phenotype. IRAK-4 was used as an indicator of TLR7 stimulation. To control for specificity of the amplification products, a melting curve analysis was performed. […] Each sample was analyzed independently in triplicate for each marker.
In both data sets, the cells were harvested for gene analysis by qPCR.
Primarily, human monocytic (THP-1) cells were induced to the M2-like phenotype using the methods and materials previously described. In particular, THP-1 cells were seeded into 96-well plates at a density of 60,000 cells/well. Cells were differentiated into unpolarized macrophages by 48 h incubation with 200 nM PMA followed by 24 hours incubation in fresh RPMI medium. The resulting macrophages were polarized to an M2-like phenotype by incubation with […] IL-4, 20 ng/ml […], and 5 ng/mL IL-6 for 48h. Cultures were maintained at 37° C. in a humidified 5% CO2 incubator.
In addition to the nonconjugated TLR7 agonist, conjugated compounds of the present disclosure were likewise evaluated. Human THP-1 cells were induced to macrophages having the M2-like phenotype per the methods set forth herein (e.g., using 20 ng/mL IL-4, 20 ng/mL IL-13, 5 ng/mL IL-6), then reprogrammed with different nM concentrations of various compounds of the present disclosure for 2 hours; namely, a nonconjugated (free drug) TLR7 agonist compound having formula I and/or II (data shown collectively as Compound 3A), a folate-conjugated TLR7 agonist compound having formula XV (having a releasable linker) (e.g., Compound 3B), a folate-conjugated TLR7 agonist compound having formula XVII (having a non-releasable linker) (e.g., Compound 3C), and a folate-conjugated TLR7 agonist compound having formula XVI (having a non-releasable linker) (e.g., Compound 3D). The cells were subsequently harvested for gene analysis by qPCR and the relative expression of CCL18 (FIG. 14A), CD206 (FIG. 14B), and IL-1β (FIG. 14C) analyzed.

[2] = test system: M2-induced THP-1 macrophages; experiment: Secreted CCL18 and IL-1β in THP-1 supernatants by ELISA; type: cell-based, human
Method: FIGS. 6A-6D show graphical data representative of various marker levels measured from M2-induced THP-1 macrophages treated with different concentrations of drugs for 48 hours (FIGS. 6A and 6B) or for 2 hours, then displaced with fresh medium and cultured for the remaining 46 hours (FIGS. 6C and 6D). In both cases, cell supernatants were collected and secreted CCL18 protein and IL-1β was detected by ELISA.
Further, to ensure that the above mRNA analyses accurately reflected the levels of anti-inflammatory cytokines produced by IL-4, IL-6 plus IL-13 stimulated THP-1 cells, the concentrations of CCL18 and IL-1β polypeptides in the THP-1 supernatants were quantitated by ELISA assay.
CCL18 and IL-1β were quantified in induced THP-1 cell supernatants using a human DuoSet ELISA Development System (R&D Systems Europe, Abingdon, UK: #DY394-05) and an IL-1 beta Human ELISA Kit (Thermo Fisher Scientific, Waltham, MA; #BMS224-2) as described by manufactures. BALF samples were analyzed for mouse IFN-γ using ELISA MAX™ Deluxe (Biolegend, San Diego, CA; #430804).
Additionally, cell supernatants were collected and secreted CCL18 protein was detected by ELISA.

[3] = 2 hours with drug, then drug-free medium
[4] = continuous incubation 48 hours, ELISA

## CCCCc1nc2c(N)nc3ccccc3c2n1CC(C)(C)OC(=O)OCCSSCC(NC(=O)CCC(NC(=O)c1ccc(NCc2cnc3nc(N)[nH]c(=O)c3n2)cc1)C(=O)O)C(=O)O (stereo not drawn) [Compound 1B]
[1]; 2 hours incubation, harvested at once or after further 46 hours
  anti-inflammatory/M2-type markers (CCL18, CD206, IL-1β, PDGFβ mRNA): downregulated anti-inflammatory/M2-type markers of macrophages more than Compound 1A
[1]; [3]
  TNFα induction: dramatically improved
  potency in reprogramming: superior potency relative to Compound 1A
[2]; [4]
  secreted CCL18 polypeptide: reductions
  secreted IL-1β polypeptide: reductions
[2]; drug exposure limited to 2 hours, then 46 hours fresh medium
  reduction of secreted CCL18 and IL-1β, comparison of 1B with 1A: superior
